Series [1] concerns MADTP-314res CHIKV 899 variant. The series can be described thus: microbe, parasite or virus in culture. It counts as cell-based, Chikungunya virus. To be noted: for EC50: Chikungunya virus, read-out: EC50 MADTP-314res variant 3 (resistance selection).
The subject of series [2] is CHIKV. The series can be described thus: Time-of-addition study, CHIKV RNA reduction. It counts as cell-based, Chikungunya virus. The note with it: for reduction in CHIKV RNA: added 6 h post infection, assessed at 24 h post infection.
For series [3], the system named is translation of incoming capped CHIKV RNA. It counts as cell-based, Chikungunya virus. To be noted: 250 μM.
The test system of series [4] is CHIKV pseudoparticles (CHIKVpp). It counts as cell-based, Chikungunya virus.
In series [5] the test system is CHIKV Venturini (Italy 2008). Put plainly: Viral RNA reduction (qRT-PCR) antiviral assay in Vero E6 cells. It counts as cell-based. To be noted: Chikungunya virus, Vero C1008, read-out: EC50, in vitro antiviral activity against CHIKV Venturini (Italy 2008).
Series [6] concerns the target T1, VEEV nsP1 (Venezuelan equine encephalitis virus, UniProt P36328). Put plainly: biochemical.
Series [7] concerns CHIKV RNA synthesis. Put plainly: Metabolic labeling with 3H-uridine of CHIKV RNA in infected Vero E6 cells. It counts as cell-based, Chikungunya virus. The note with it: 50–250 μM.
Series [8] has as its system CHIKV strain 899. Put plainly: CPE reduction antiviral assay, CHIKV 899 in Vero A cells (MTS/PMS). To be noted: Chikungunya virus. It counts as cell-based.
In series [9] the test system is VEEV TC83. The series can be described thus: microbe, parasite or virus in culture. It counts as cell-based. To be noted: Venezuelan equine encephalitis virus, Vero C1008, read-out: EC50, in vitro antiviral activity against VEEV TC83.
Series [10] concerns WT CHIKV LS3. Put plainly: microbe, parasite or virus in culture. It counts as cell-based, Chikungunya virus. The note with it: for EC50: Chikungunya virus, Vero C1008, read-out: EC50 WT LS3 (reverse genetics).
Series [11] deals with CHIKV Congo 95 (2011). Put plainly: Viral RNA reduction (qRT-PCR) antiviral assay in Vero E6 cells. It counts as cell-based. To be noted: Chikungunya virus, Vero C1008, read-out: EC50, in vitro antiviral activity against CHIKV Congo 95 (2011). On the technique in general: Quantitative PCR measures a nucleic acid by following its amplification.
The target in series [12] is CHIKV replication/transcription complexes (RTCs) (Chikungunya virus, UniProt Q8JUX6). Put plainly: In vitro RNA synthesis assay with isolated CHIKV replication/transcription complexes (32P-CTP incorporation). It counts as biochemical. The note with it: 250 μM.
CHIKV replication/transcription complexes (RTCs), sequence (Q8JUX6 1864-2474 limits assumed): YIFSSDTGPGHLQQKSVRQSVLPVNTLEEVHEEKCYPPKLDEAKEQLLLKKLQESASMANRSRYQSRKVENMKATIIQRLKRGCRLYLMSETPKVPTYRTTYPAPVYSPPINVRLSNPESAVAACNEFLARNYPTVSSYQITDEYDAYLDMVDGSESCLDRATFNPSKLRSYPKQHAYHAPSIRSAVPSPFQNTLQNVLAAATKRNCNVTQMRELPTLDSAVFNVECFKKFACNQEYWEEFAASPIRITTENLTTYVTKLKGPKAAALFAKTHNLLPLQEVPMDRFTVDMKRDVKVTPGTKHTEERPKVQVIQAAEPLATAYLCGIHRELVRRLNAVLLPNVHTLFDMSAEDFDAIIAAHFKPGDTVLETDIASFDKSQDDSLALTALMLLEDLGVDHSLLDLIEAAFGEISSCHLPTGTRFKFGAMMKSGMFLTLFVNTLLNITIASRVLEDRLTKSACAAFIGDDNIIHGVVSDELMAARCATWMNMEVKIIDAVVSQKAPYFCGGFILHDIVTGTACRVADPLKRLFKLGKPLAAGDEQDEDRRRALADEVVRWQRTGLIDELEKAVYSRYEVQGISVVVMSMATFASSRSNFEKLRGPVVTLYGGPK
CHIKV replication/transcription complexes (RTCs), sequence (Q8JUX6 1-535 partner limits assumed): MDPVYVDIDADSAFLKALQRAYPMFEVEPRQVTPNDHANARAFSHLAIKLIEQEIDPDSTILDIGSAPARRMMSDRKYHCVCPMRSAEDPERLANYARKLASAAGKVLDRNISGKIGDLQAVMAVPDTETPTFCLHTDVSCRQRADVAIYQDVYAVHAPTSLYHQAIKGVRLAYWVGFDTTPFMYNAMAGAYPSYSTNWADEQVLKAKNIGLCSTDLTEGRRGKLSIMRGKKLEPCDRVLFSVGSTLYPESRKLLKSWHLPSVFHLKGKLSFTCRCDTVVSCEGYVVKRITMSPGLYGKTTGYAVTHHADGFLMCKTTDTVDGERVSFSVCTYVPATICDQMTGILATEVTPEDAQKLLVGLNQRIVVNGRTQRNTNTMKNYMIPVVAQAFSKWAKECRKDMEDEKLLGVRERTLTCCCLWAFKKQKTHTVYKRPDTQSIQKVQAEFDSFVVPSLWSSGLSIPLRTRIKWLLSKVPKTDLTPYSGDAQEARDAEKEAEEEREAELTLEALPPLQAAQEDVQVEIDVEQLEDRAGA
CHIKV replication/transcription complexes (RTCs), sequence (Q8JUX6 536-1333 partner limits assumed): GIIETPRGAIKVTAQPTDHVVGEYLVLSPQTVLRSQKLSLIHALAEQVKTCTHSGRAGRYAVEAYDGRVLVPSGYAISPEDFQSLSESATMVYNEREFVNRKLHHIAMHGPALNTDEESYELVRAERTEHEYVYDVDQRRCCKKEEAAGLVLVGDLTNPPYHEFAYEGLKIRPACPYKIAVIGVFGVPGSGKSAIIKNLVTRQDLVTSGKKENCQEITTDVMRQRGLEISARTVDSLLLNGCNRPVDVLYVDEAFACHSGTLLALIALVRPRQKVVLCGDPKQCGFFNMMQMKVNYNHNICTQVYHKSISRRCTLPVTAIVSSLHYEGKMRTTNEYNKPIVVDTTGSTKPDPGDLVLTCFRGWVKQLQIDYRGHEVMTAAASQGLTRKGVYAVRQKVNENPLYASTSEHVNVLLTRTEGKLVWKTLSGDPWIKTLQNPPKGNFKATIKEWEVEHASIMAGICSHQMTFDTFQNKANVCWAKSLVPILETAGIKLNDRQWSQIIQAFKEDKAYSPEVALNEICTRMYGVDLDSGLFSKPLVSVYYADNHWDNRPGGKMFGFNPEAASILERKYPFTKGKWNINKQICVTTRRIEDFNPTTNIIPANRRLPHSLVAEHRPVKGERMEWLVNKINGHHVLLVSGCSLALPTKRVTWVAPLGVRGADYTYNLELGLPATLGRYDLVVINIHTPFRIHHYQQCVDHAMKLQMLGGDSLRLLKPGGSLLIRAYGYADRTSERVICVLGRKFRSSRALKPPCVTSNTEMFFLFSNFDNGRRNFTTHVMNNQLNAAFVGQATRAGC
Series [13] in a line: in vitro. The note with it: African green monkey.
Series [14] concerns CHIKV. The note with it: cited from earlier work.
In series [15] the test system is CHIKV. The note with it: cited from earlier work. This is another data set of the same source.
The target in series [16] is T1, VEEV nsP1. The series can be described thus: biochemical. It counts as biochemical.
The subject of series [17] is Vero cells. The note with it: cited from earlier work.
The subject of series [18] is CHIKV strain 899. The note with it: cited from earlier work.
In series [19] the test system is CHIKV. To be noted: clinical studies; cited from earlier work.
Where [20] appears, read: 120 h, read-out: EC50, in vitro antiviral activity against CHIKV 899 (lab).
[21] abbreviates: read-out: EC50 WT 899 (resistance selection).

Like-named read-outs stand apart in the source and are kept apart here. Bounds are passed on as bounds.

T1 sequence (P36328 1-535 limits assumed): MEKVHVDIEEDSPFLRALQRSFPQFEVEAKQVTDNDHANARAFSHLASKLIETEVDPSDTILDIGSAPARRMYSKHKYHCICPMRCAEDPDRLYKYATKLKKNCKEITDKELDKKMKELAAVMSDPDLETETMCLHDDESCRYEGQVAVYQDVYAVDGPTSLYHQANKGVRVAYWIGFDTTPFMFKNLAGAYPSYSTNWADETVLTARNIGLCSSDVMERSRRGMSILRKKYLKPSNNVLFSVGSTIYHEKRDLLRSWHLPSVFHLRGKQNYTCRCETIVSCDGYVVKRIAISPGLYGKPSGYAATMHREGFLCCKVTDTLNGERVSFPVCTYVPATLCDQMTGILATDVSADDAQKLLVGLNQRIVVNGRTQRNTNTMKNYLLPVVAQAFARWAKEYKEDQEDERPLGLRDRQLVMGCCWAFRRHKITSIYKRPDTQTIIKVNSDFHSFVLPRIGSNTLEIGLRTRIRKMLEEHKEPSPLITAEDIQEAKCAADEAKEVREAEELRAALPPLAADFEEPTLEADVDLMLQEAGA

`CC(=O)c1cccc(-n2nnc3c(=O)[nH]c(C)nc32)c1` [MADTP-314, 3-(3′-acetylphenyl)-5-methyl-3H-[1,2,3]triazolo[4,5-d]pyrimidin-7(6H)-one]: in [1], the “fold less sensitive, MADTP-314-resistant variants vs wild-type” value is listed as ~ 11 fold. Further, the EC50 was 283 ± 45 µM in series [1]; 26 ± 2 µM in [5]; 26 ± 11 µM in [8] (setting [20]); greater than 40 µM in series [9]; 40 ± 5 µM in [10]; 6.4 ± 0.1 µM in [11]. Moreover, in series [2], the “reduction in CHIKV RNA” value is 1.3 log10. For the same compound, the “luciferase activity (translation of replication-deficient CHIKV RNA)” value in series [3] was “comparable to that in untreated control cells”. Besides, the “entry of CHIKV pseudoparticles into the host cell” value (from here on “entry”) in series [4] is reported as “not able to block the entry”. In [6], the IC50 is greater than 1000 µM. Moreover, the “CHIKV RNA synthesis (3H-uridine incorporation)” value in [7] is recorded as “did not inhibit CHIKV RNA synthesis”. In addition, in series [10], the “fold less sensitive, CHIKV LS3 vs CHIKV 899” value came out at 1.5 fold. Moreover, the “incorporation of 32P-CTP into CHIKV RNA by isolated RTCs” value in series [12] is given as “did not inhibit the incorporation”. Besides, the CC50 in series [13] was greater than 743 µM.

Take `NC(=O)c1nc(F)c[nH]c1=O` [T-705, reference compound]: in series [1], the “cross-resistance of MADTP-314-resistant variants” value was “No cross-resistance” and the EC50 was found to be 34 ± 5.7 µM. Besides, in [2], the “reduction in CHIKV RNA” value is reported as 1.0 log10. In series [14], the “anti-CHIKV activity in a mouse model” value is listed as “exerts anti-CHIKV activity”. The EC50 in series [8] (setting [21]) came to 20 ± 2.7 µM. Besides, the “anti-CHIKV activity in vitro” value in series [15] was “exerts anti-CHIKV activity”.

For the compound `CCc1nc2c(nnn2-c2cccc(OC(C)C)c2)c(=O)[nH]1` [MADTP-372, 5-ethyl-3-(3-isopropoxyphenyl)-3H-[1,2,3]triazolo[4,5-d]-pyrimidin-7(6H)-one], the EC50 in series [1] turned out to be 255 ± 16 µM; in [5] it was 1.4 ± 0.01 µM; in [8] (setting [20]) it was 2.6 ± 1 µM; in series [9], 6.8 µM; in [10], 4.9 ± 0.6 µM; in series [11] it was 0.75 ± 0.4 µM. For the same compound, the “GT activity of VEEV nsP1 (formation of m7GMP-nsP1 complex)” value in [16] is reported as “inhibited the GT activity of VEEV nsP1 in a concentration-dependent manner”. The values for the IC50 in series [16] and in series [6] were 10 ± 0.3 µM and greater than 1000 µM, respectively. The CC50 in series [17] is greater than 400 µM; in [13], greater than 668 µM.

On to `CCOC(=O)c1c(CSc2ccccc2)n(C)c2cc(Br)c(O)c(CN(C)C)c12` [arbidol], for which the “entry” value in series [4] was “inhibited CHIKVpp entry in a dose-dependent manner”.

Turning to `CCCOc1ccc(-n2nnc3c(=O)[nH]c(C)nc32)cc1` [MADTP-346], in [16], the “GT activity of VEEV nsP1 (formation of m7GMP-nsP1 complex)” value was “did not inhibit the GT activity”. This compound showed an IC50 in series [6] greater than 1000 µM. Also, in series [18], the “anti-CHIKV activity in cell culture” value was “devoid of anti-CHIKV activity”.

`CCN(CC)CCCC(C)Nc1ccnc2cc(Cl)ccc12` (stereo not drawn) [Chloroquine]: in series [1], the “cross-resistance of MADTP-314-resistant variants” value was “No cross-resistance” and the EC50 worked out at 20 ± 4.7 µM. For the same compound, in [19], the “efficacy in infected patients” value is given as “failed to prove its efficacy”. Further, the “reduction of CHIKV RNA” value in [2] (added 2 h before infection) was determined as 2 log10. For the same compound, the “protective activity in time-of-addition” value in series [2] (added at time points later than 1 h p.i.) was “entirely lost its protective activity”. Moreover, in series [4], the “entry” value is “inhibited CHIKVpp entry in a dose-dependent manner”. For the same compound, the EC50 in [8] (setting [21]) was found to be 18 ± 11 µM. Besides, in [15], the “effect on CHIKV replication in vitro” value was “dose- and time-dependent inhibitory effect”.

Consider `CCc1nc2c(nnn2-c2cccc(C(C)=O)c2)c(=O)[nH]1` [MADTP-393], for which the EC50 amounted to 193 ± 14 µM in series [1]; 8.2 ± 2.2 µM in series [5]; 18 ± 6.4 µM in series [8] (setting [20]); 35 ± 10 µM in series [9]; 15 ± 0.8 µM in [10]; 1.4 ± 0.3 µM in series [11]. Also, the CC50 in series [13] is 57 µM.

In general, EC50 refers to the midpoint of the concentration-response curve. For orientation: IC50 means the concentration at which inhibition is half-maximal.
